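96-well plates; 48 h exposure; 5 concentrations. Endpoints by linear interpolation between flanking doses. Not reached: highest tested concentration assigned. At the TGI there is no net growth.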
Columns and labels:
Test in all cases: NCI tumour cell line growth inhibition, 48 h
DU-145 prostate = tested on: DU-145 prostate
SK-MEL-5 melanoma = tested on: SK-MEL-5 melanoma
UACC-257 melanoma = tested on: UACC-257 melanoma
A498 renal = tested on: A498 renal
CCRF-CEM leukemia = tested on: CCRF-CEM leukemia
MDA-MB-435 = tested on: MDA-MB-435
MDA-N = tested on: MDA-N
SK-OV-3 ovarian = tested on: SK-OV-3 ovarian
OVCAR-5 ovarian = tested on: OVCAR-5 ovarian
MCF7 breast = tested on: MCF7 breast
MOLT-4 leukemia = tested on: MOLT-4 leukemia
RPMI-8226 leukemia = tested on: RPMI-8226 leukemia
CAKI-1 renal = tested on: CAKI-1 renal
HCT-15 colon = tested on: HCT-15 colon
UACC-62 melanoma = tested on: UACC-62 melanoma
RXF 393 renal = tested on: RXF 393 renal
BT-549 breast = tested on: BT-549 breast
COLO 205 colon = tested on: COLO 205 colon
HOP-92 NSCLC = tested on: HOP-92 NSCLC
M14 melanoma = tested on: M14 melanoma
SW-620 colon = tested on: SW-620 colon
SNB-75 CNS = tested on: SNB-75 CNS
TK-10 renal = tested on: TK-10 renal
HL-60(TB) leukemia = tested on: HL-60(TB) leukemia
OVCAR-3 ovarian = tested on: OVCAR-3 ovarian
HT29 colon = tested on: HT29 colon
KM12 colon = tested on: KM12 colon
SK-MEL-2 melanoma = tested on: SK-MEL-2 melanoma
OVCAR-4 ovarian = tested on: OVCAR-4 ovarian
HCT-116 colon = tested on: HCT-116 colon
SR leukemia = tested on: SR leukemia
UO-31 renal = tested on: UO-31 renal
PC-3 prostate = tested on: PC-3 prostate
SF-295 CNS = tested on: SF-295 CNS
MALME-3M melanoma = tested on: MALME-3M melanoma
HOP-62 NSCLC = tested on: HOP-62 NSCLC
SK-MEL-28 melanoma = tested on: SK-MEL-28 melanoma
U251 CNS = tested on: U251 CNS
NCI-H460 lung = tested on: NCI-H460 lung
NCI-H226 lung = tested on: NCI-H226 lung
OVCAR-8 ovarian = tested on: OVCAR-8 ovarian
SN12C renal = tested on: SN12C renal
IGROV1 ovarian = tested on: IGROV1 ovarian
T-47D breast = tested on: T-47D breast
NCI-H23 lung = tested on: NCI-H23 lung
K-562 leukemia = tested on: K-562 leukemia
HS 578T breast = tested on: HS 578T breast
NCI/ADR-RES ovarian = tested on: NCI/ADR-RES ovarian
SNB-19 CNS = tested on: SNB-19 CNS
SF-268 CNS = tested on: SF-268 CNS
SF-539 CNS = tested on: SF-539 CNS
A549 NSCLC = tested on: A549 NSCLC
MDA-MB-231 breast = tested on: MDA-MB-231 breast
HCC-2998 colon = tested on: HCC-2998 colon
NCI-H522 lung = tested on: NCI-H522 lung
ACHN renal = tested on: ACHN renal
786-0 renal = tested on: 786-0 renal

Measured: TGI

O=C(N/N=C\c1ccc([N+](=O)[O-])cc1)Nc1ccccc1
not listed: SF-268 CNS | SF-539 CNS | A549 NSCLC | MDA-MB-231 breast | HCC-2998 colon | NCI-H522 lung | ACHN renal | 786-0 renal
> 100 µM: all other assays above

Cn1ccnc1SC(F)(F)c1nc2ccccc2o1
not listed: HL-60(TB) leukemia | SR leukemia | SNB-19 CNS
> 100 µM: all other assays above
